Patent publication US20140127194A1, “COMBINED PHARMACEUTICAL COMPOSITIONS FOR THE TREATMENT OF TUMORS” (HYD Rákkutató és Gyógyszerfejlesztö Kft., priority 2011, published 2014)

Experiments:
[1] = system: chronic myeloid leukemia (CML); experiment: Case report: chronic myeloid leukemia patient, DDW with Litaril, then STI 571 (Gleevec); type: in vivo, human
Procedure: b/ In a young patient in 1998, chronic myeloid leukemia (CML) was diagnosed, and was medicated with Litaril because of high WBC count. […] In February 2001 the patient was enrolled in the clinical trial of the drug candidate STI 571 (Gleevec). By August 2001, bone marrow damage decreased to 66% from the previous 80%.
(§1) DdU units used in the treatment were determined as described in Example 1 and 2.

kidney tumor = experiment: Case report: kidney tumor patient, Sutent with and without DDW; type: in vivo, human
Procedure: c/ With another tyrosine kinase inhibiting agent, Sutent, a similar positive interaction was found. In one patient, kidney tumor was diagnosed in spring 2003 and was surgically removed. Up to spring 2006, three further operations were necessary because of the disease recidivating.
as §1

[2] = system: prostate cancer with bone metastasis; experiment: Prostate cancer case reports: PSA tumor marker and remission versus DDW consumption; type: in vivo, human; conditions: patient, PSA over 1000 ng/mL, before start of DDW
Procedure: FIG. 1: Data of a patient with prostate cancer and bone metastasis, with extremely high PSA level (1000 ng/mL). Beside conventional treatment, DDW was also applied. In spite of the potentially bad prognosis the patient remained in regression for 9 years. PSA level: left Y axis and broken line; DDW dose: right Y axis and solid line.
FIG. 2: patient with prostate cancer and extreme PSA levels. […] Interrupting the DDW cure caused increasing PSA levels, and after finishing DDW consumption in December 2009 PSA was soaring. Broken line: PSA level, solid line: DDW dose.
Patient 2 (FIG. 1) had bone metastasis in the early phase of the disease, PSA was over 1000 ng/mL. […] They started consuming DDW in April 2003, 640 days (=21.3 months) after diagnosing bone metastasis with 15.0 ng/mL PSA. They consumed DDW for nearly one year at DdU of 1.0. A break of 6 months followed this cure, during which the disease progressed and PSA increased from 1 to 4.34 ng/mL. A new DDW cure brought regression and PSA below 1 ng/mL. 4 years after diagnosis, Androcure was replaced with Suprefact. Further DDW treatments (see FIG. 1 for DdU values) PSA was decreased in the following 3 years and the patient had no complaints in spite of the existing bone metastasis and the generally bad prognosis. […]

breast cancer = conditions: Taxotere without DDW, general experience; cited from earlier work
HT199 melanoma cell line = experiment: In vitro growth of melanoma cells with DDW, doxorubicin and their combination; type: cell-based; conditions: 450 and 900 nM in normal (150 ppm D) medium
Procedure: Curves 4 and 6 show the inhibition by DDW plus the mentioned two concentrations of doxorubicin.
In the experiment, the effect of DDW, doxorubicin, and their combination was tested on HT199 melanoma cell line.

## Cc1ccc(NC(=O)c2ccc(CN3CCN(C)CC3)cc2)cc1Nc1nccc(-c2cccnc2)n1 [STI 571]
[1]; one CML patient consuming DDW and on STI 571, April 2002
  disease status: fully negative
[1]; one CML patient consuming DDW, STI 571 from February 2001, by August 2001, previously 80%
  bone marrow damage: 66%

## CCN(CC)CCNC(=O)c1c(C)[nH]c(/C=C2\C(=O)Nc3ccc(F)cc32)c1C [Sutent]
Kidney tumor; one kidney tumor patient, Sutent without DDW, progression again in March 2007
  tumor response: efficient initially
Kidney tumor; same patient, DDW in parallel with Sutent from autumn 2007
  tumor response: the tumors shrank again
Kidney tumor; same patient, DDW in parallel with Sutent, three years later
  tumor response on images: ongoing decrease of the tumor sizes

## C[C@]12CC[C@@H]3c4ccc(OC(=O)N(CCCl)CCCl)cc4CC[C@H]3[C@@H]1CC[C@@H]2OP(=O)(O)O [Estracyt]
[2]
  PSA change: PSA was rapidly lowered

## CC(=O)O[C@@]12CO[C@@H]1C[C@H](O)[C@@]1(C)C(=O)[C@H](O)C3=C(C)[C@@H](OC(=O)[C@H](O)[C@@H](NC(=O)OC(C)(C)C)c4ccccc4)C[C@@](O)([C@@H](OC(=O)c4ccccc4)[C@H]21)C3(C)C [Taxotere, docetaxel]
Breast cancer
  MST: 20-22 months

## COc1cccc2c1C(=O)c1c(O)c3c(c(O)c1C2=O)C[C@@](O)(C(=O)CO)C[C@@H]3O[C@H]1C[C@H](N)[C@H](O)[C@H](C)O1 [doxorubicin]
HT199 melanoma cell line
  effect on growth of melanoma cells: inhibitory effect

## CC(=O)O[C@]1(C(C)=O)CC[C@H]2[C@@H]3C=C(Cl)C4=CC(=O)[C@@H]5C[C@@H]5[C@]4(C)[C@H]3CC[C@@]21C [Androcure]
[2]
  PSA change: PSA was rapidly lowered
